Measurements from the supplement of paper PMC10307832.

Tests used:
Experiment in all cases: relative viability (nuclei count vs DMSO), 5 days (fraction); higher = more cells survive
[1] = compound: C[C@@H](N)c1ccc(C(=O)Nc2ccnc3[nH]ccc23)cc1 + C[C@@H](Oc1cc(-c2cnn(C3CCNCC3)c2)cnc1N)c1c(Cl)ccc(F)c1Cl [Crizotinib] (partner 1 µM)
Summary of the method: (§1)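 Relative viability equals treated-well nuclei counts divided by vehicle-well nuclei counts. Counts came from 4× images of lung cancer cell lines grown in 1536-well plates for 5 days after pin-tool dosing on the day after seeding. Dosing used one drug alone or a fixed anchor-drug dose plus five library-drug doses (not always all listed) in √10 steps, and values are medians of duplicate plates.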

Tanzisertib + Crizotinib = compound: O[C@H]1CC[C@H](Nc2ncc3nc(Nc4c(F)cc(F)cc4F)n([C@H]4CCOC4)c3n2)CC1 [Tanzisertib] + C[C@@H](Oc1cc(-c2cnn(C3CCNCC3)c2)cnc1N)c1c(Cl)ccc(F)c1Cl [Crizotinib] (partner 1 µM)
Summary of the method: as §1

Tanzisertib + Pemetrexed = compound: O[C@H]1CC[C@H](Nc2ncc3nc(Nc4c(F)cc(F)cc4F)n([C@H]4CCOC4)c3n2)CC1 [Tanzisertib] + Nc1nc2[nH]cc(CCc3ccc(C(=O)N[C@@H](CCC(=O)O)C(=O)O)cc3)c2c(=O)[nH]1 [Pemetrexed] (partner 0.2 µM)
Summary of the method: as §1

Tanzisertib + Luminespib = compound: O[C@H]1CC[C@H](Nc2ncc3nc(Nc4c(F)cc(F)cc4F)n([C@H]4CCOC4)c3n2)CC1 [Tanzisertib] + CCNC(=O)c1noc(-c2cc(C(C)C)c(O)cc2O)c1-c1ccc(CN2CCOCC2)cc1 [Luminespib] (partner 0.01 µM)
Summary of the method: as §1

Cell Line	relative viability ([1]; first compound 0.04 µM)	relative viability ([1]; first compound 0.1265 µM)	relative viability ([1]; first compound 0.4 µM)	relative viability ([1]; first compound 1.265 µM)	relative viability ([1]; first compound 4 µM)	relative viability (Tanzisertib + Crizotinib; first compound 0.08 µM)	relative viability (Tanzisertib + Crizotinib; first compound 0.253 µM)	relative viability (Tanzisertib + Crizotinib; first compound 0.8 µM)	relative viability (Tanzisertib + Crizotinib; first compound 2.53 µM)	relative viability (Tanzisertib + Crizotinib; first compound 8 µM)	relative viability (Tanzisertib + Pemetrexed; first compound 0.08 µM)	relative viability (Tanzisertib + Pemetrexed; first compound 0.253 µM)	relative viability (Tanzisertib + Pemetrexed; first compound 0.8 µM)	relative viability (Tanzisertib + Pemetrexed; first compound 2.53 µM)	relative viability (Tanzisertib + Pemetrexed; first compound 8 µM)	relative viability (Tanzisertib + Luminespib; first compound 0.08 µM)	relative viability (Tanzisertib + Luminespib; first compound 0.253 µM)	relative viability (Tanzisertib + Luminespib; first compound 0.8 µM)	relative viability (Tanzisertib + Luminespib; first compound 2.53 µM)	relative viability (Tanzisertib + Luminespib; first compound 8 µM)
HCC-78	0.383	0.347	0.363	0.453	0.32	0.287	0.331	0.313	0.332	0.286	0.965	0.901	0.915	0.882	0.934					
HCC-366	0.71	0.536	0.683		0.483	0.651	0.523	0.671	0.492	0.515		0.201	0.152	0.204	0.328					
HCC-827	0.928	0.957	0.925	0.941	0.795	0.903	0.964	0.931	0.892	0.559	0.266	0.229	0.25	0.251	0.175	0.668	0.594	0.642	0.588	0.259
HOP-62	0.685	0.798	0.908	0.853	0.709	0.945	0.964	1	1.05	0.824	0.301	0.346	0.31	0.315	0.353	0.966	0.924	0.886	0.91	0.883
IA-LM	1.02	0.937	1.17	1.08	0.938	0.927	0.544		0.948	0.87										
LC-2-ad	0.43	0.486	0.501	0.438	0.409	0.521	0.501	0.415	0.43	0.426	0.282	0.292	0.275	0.272	0.294	1.15	1.04	1.03	1.07	1.05
LCLC-97TM1	0.32	0.322	0.463	0.961	0.638		0.331	0.417	0.262	0.427	0.172	0.164	0.146	0.169	0.173	0.956	0.669	0.803	0.824	0.788
LCLC-103H	1.19	1.02	1.13	1.01	0.903	1.06	1.01	1.11	1.09	1.01	0.521	0.472	0.451	0.432	0.468	1	0.888	0.941	1.05	1.12
LK-2	0.227	0.251	0.224		0.218	0.233	0.271	0.232	0.244	0.235	0.294	0.273	0.161	0.234	0.244	0.224	0.187	0.191	0.192	0.181
LOU-NH91	0.691	0.727	0.691	0.668	0.635	0.716	0.734	0.723	0.464	0.593	0.42	0.42	0.399	0.403	0.387	0.431	0.345	0.371	0.33	0.349
LU99A	0.55	0.558	0.58	0.462	0.47	0.557	0.567	0.513	0.638	0.586	0.167	0.191	0.172	0.159	0.19	0.204	0.238	0.239	0.26	0.227
LXF-289	0.846	0.784	0.883	0.915	0.715	0.935	0.734	0.836	0.815	0.854	0.902	0.923	1.01	0.915	1.02	0.66	0.621	0.684	0.675	0.643
NCI-H522											1.04	1.07	0.915	1.07	1.05	1.38	1.27	0.966	1.16	1.17
NCI-H727	1.04	1	1.21	1.19	0.842	0.797	0.853	0.787	1.02	0.832						0.365	0.345	0.339	0.375	0.728
NCI-H1299	0.905	0.911	0.845	0.845	0.713	0.983	0.972	0.968	0.984	1.05										
NCI-H1395											0.868	0.88	0.971	0.939	0.788	0.786	0.525	0.632	0.717	0.547
NCI-H1623																0.617	0.443	0.484	0.502	0.624
NCI-H1648											0.689	0.698	0.775	0.754	0.735					
NCI-H1703	0.565	0.611	0.641	0.577	0.71	0.538	0.573	0.69	1.08	0.723										
NCI-H1793											1.07	0.914	0.976	0.766	0.828	0.174	0.216	0.2	0.165	0.216
NCI-H2342											0.867	0.749	0.768	0.708	0.668	0.688	0.828	0.975	0.759	0.888
SW 900												0.51	0.501	0.451	0.464	0.169	0.188	0.151	0.207	0.168
